Measured values published in PubChem BioAssay (NCI).
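Growth conditions: 96-well plates. Treatment: test compound, 48 hours, 5 concentrations. Analysis: linear interpolation between bracketing concentrations; unreached endpoints set to highest concentration. At the GI50, growth is halved. TGI: concentration producing complete growth inhibition.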

Tests used:
Experiment in all cases: growth of human tumour cells (NCI), 48 h
[1] = test system: 786-0 renal
[2] = test system: A498 renal
[3] = test system: A549 NSCLC
[4] = test system: ACHN renal
[5] = test system: BT-549 breast
[6] = test system: CAKI-1 renal
[7] = test system: CCRF-CEM leukemia
[8] = test system: DU-145 prostate
[9] = test system: EKVX NSCLC
[10] = test system: HCC-2998 colon
[11] = test system: HCT-116 colon
[12] = test system: HCT-15 colon
[13] = test system: HL-60(TB) leukemia
[14] = test system: HOP-62 NSCLC
[15] = test system: HS 578T breast
[16] = test system: HT29 colon
[17] = test system: IGROV1 ovarian
[18] = test system: K-562 leukemia
[19] = test system: KM12 colon
[20] = test system: M14 melanoma
[21] = test system: MALME-3M melanoma
[22] = test system: MCF7 breast
[23] = test system: MDA-MB-231 breast
[24] = test system: MDA-MB-435
[25] = test system: MOLT-4 leukemia
[26] = test system: NCI-H226 lung
[27] = test system: NCI-H23 lung
[28] = test system: NCI-H460 lung
[29] = test system: NCI-H522 lung
[30] = test system: NCI/ADR-RES ovarian
[31] = test system: OVCAR-8 ovarian
[32] = test system: PC-3 prostate
[33] = test system: RPMI-8226 leukemia
[34] = test system: RXF 393 renal
[35] = test system: SF-268 CNS
[36] = test system: SF-295 CNS
[37] = test system: SF-539 CNS
[38] = test system: SK-MEL-2 melanoma
[39] = test system: SK-MEL-28 melanoma
[40] = test system: SK-MEL-5 melanoma
[41] = test system: SK-OV-3 ovarian
[42] = test system: SN12C renal
[43] = test system: SNB-19 CNS
[44] = test system: SNB-75 CNS
[45] = test system: SR leukemia
[46] = test system: SW-620 colon
[47] = test system: T-47D breast
[48] = test system: TK-10 renal
[49] = test system: U251 CNS
[50] = test system: UACC-257 melanoma
[51] = test system: UACC-62 melanoma
[52] = test system: UO-31 renal

Question: What does the source list for NC(=O)c1c(NC(=O)c2ccccc2C(F)(F)F)sc2c1CCC(=O)C2?
Answer: GI50 [1]: 4.29 µM; TGI [1]: > 100 µM; GI50 [2]: 9.93 µM; TGI [2]: 40.3 µM; GI50 [3]: 3.72 µM; TGI [3]: > 100 µM; GI50 [4]: 1.01 µM; TGI [4]: 2.66 µM; GI50 [5]: 0.947 µM; TGI [5]: 76.5 µM; GI50 [6]: 1.39 µM; TGI [6]: 3.05 µM; GI50 [7]: 0.429 µM; TGI [7]: > 100 µM; GI50 [8]: 4.54 µM; TGI [8]: > 100 µM; GI50 [9]: 2.81 µM; TGI [9]: 12.1 µM; GI50 [10]: 2.88 µM; TGI [10]: 12.3 µM; GI50 [11]: 0.493 µM; TGI [11]: 8.14 µM; GI50 [12]: 0.493 µM; TGI [12]: 2.07 µM; GI50 [13]: 1.1 µM; TGI [13]: 7.37 µM; GI50 [14]: 3.97 µM; TGI [14]: > 100 µM; GI50 [15]: 3.04 µM; TGI [15]: > 100 µM; GI50 [16]: 1.97 µM; TGI [16]: 6.65 µM; GI50 [17]: 2.46 µM; TGI [17]: 9.48 µM; GI50 [18]: 0.412 µM; TGI [18]: > 100 µM; GI50 [19]: 3.66 µM; TGI [19]: 14.6 µM; GI50 [20]: 2.76 µM; TGI [20]: 19.9 µM; GI50 [21]: 2 µM; TGI [21]: 5.25 µM; GI50 [22]: 2.24 µM; TGI [22]: 9.87 µM; GI50 [23]: 1.95 µM; TGI [23]: 4.3 µM; GI50 [24]: 2.94 µM; TGI [24]: 8.7 µM; GI50 [25]: 2.02 µM; TGI [25]: 22.3 µM; GI50 [26]: 1.97 µM; TGI [26]: 4.53 µM; GI50 [27]: 1.34 µM; TGI [27]: 5.63 µM; GI50 [28]: 3.52 µM; TGI [28]: 16 µM; GI50 [29]: 0.391 µM; TGI [29]: 1.92 µM; GI50 [30]: 2.33 µM; TGI [30]: 18.3 µM; GI50 [31]: 2.6 µM; TGI [31]: > 100 µM; GI50 [32]: 0.307 µM; TGI [32]: 4.43 µM; GI50 [33]: 0.36 µM; TGI [33]: > 100 µM; GI50 [34]: 1.37 µM; TGI [34]: 3.83 µM; GI50 [35]: 3.6 µM; TGI [35]: > 100 µM; GI50 [36]: 2.55 µM; TGI [36]: 7.71 µM; GI50 [37]: 0.605 µM; TGI [37]: 2.09 µM; GI50 [38]: 2.5 µM; TGI [38]: 6.84 µM; GI50 [39]: 1.89 µM; TGI [39]: 5.5 µM; GI50 [40]: 1.78 µM; TGI [40]: 3.45 µM; GI50 [41]: 3.47 µM; TGI [41]: > 100 µM; GI50 [42]: 2.59 µM; TGI [42]: 12.6 µM; GI50 [43]: 3.74 µM; TGI [43]: > 100 µM; GI50 [44]: 1.95 µM; TGI [44]: 8.2 µM; GI50 [45]: 0.466 µM; TGI [45]: > 100 µM; GI50 [46]: 0.402 µM; TGI [46]: 13.8 µM; GI50 [47]: 0.492 µM; TGI [47]: 5.71 µM; GI50 [48]: 3.2 µM; TGI [48]: > 100 µM; GI50 [49]: 0.99 µM; TGI [49]: 19.1 µM; GI50 [50]: 2.48 µM; TGI [50]: 7.38 µM; GI50 [51]: 1.29 µM; TGI [51]: 3.19 µM; GI50 [52]: 1.12 µM; TGI [52]: 2.33 µM
